The test system of the assay is Staphylococcus epidermidis biofilms. The experiment in a line: Sterilization of S. epidermidis biofilms, minimal exposure time at 22° C. (supravital dye, confirmed by culture). Format: cell-based. From the text:
This example compares and contrasts the cidal effectiveness of compositions of the invention with other disinfectants and antibiotics against Staphylococcus epidermidis biofilms, which are frequently observed on the surface of C.A.P.D. peritoneal catheters even in the absence of peritonitis or exit site infections.
A strain of S. epidermidis with characteristic abundant slime production, and derived from a human source, is used to prepare the biofilms. The isolate is fully sensitive in the fluid phase to all commonly used antibiotics as assayed using routine test methods. Aliquots of the bacteria are frozen at -70° C. in 10% glycerol broth or propagated on 5% defibrinated horse blood agar. Standardized biofilms are formed on soda glass microscope slides or slides coated with Silastic® (the basic material of indwelling catheters; see Cecil's, cited above, on page 542), placed in Petri dishes containing 20 ml of tryptone soya broth (Oxoid Ltd., England), seeded with 10^4 cfu S. epidermidis and incubated for 18 hours at 37° C. Reproducible uniform and confluent S. epidermidis biofilms of minimal density are formed.
Antibiotic activity against S. epidermidis biofilms are determined using a supravital dye which acts as an electron acceptor in coupled oxidative systems in biofilm bacteria. The method allows the bacteria to be examined undisturbed within the biofilm matrix in situ. Briefly stated, the biofilms are exposed to antibiotic solutions and incubated at […] for varying periods of time. Positive (viable, 1% peptone water) and negative (sterilized, 4% formol-peptone) controls are included in all experiments. After a designated exposure at 22° C. for varying periods of time between 15 seconds to 6 hours, the biofilms are rinsed twice in sterile water and allowed to drain. They are then placed in a flat agar medium incorporating substantive dyes and incubated at 37° C. for 4 hours, then 24 hours. Viability is assessed visually by a change in dye color and confirmed after 24 hours by mechanically scraping and subsequently culturing the biofilms. Sterilization is indicated by the absence of color changes and confirmed by culture of both intact and mechanically fragmented biofilms. Inhibition of growth is indicated by a lack of color change after a 4-hour incubation and confirmed by a positive color change by 24 hours.

Consider `OO` [Hydrogen Peroxide (3%), Hydrogen Peroxide], for which the “Exposure Time (22° C.) for Film Sterilization” value is 10 min. Further, the “contact time relative to 50 ppm ClO2 to destroy the organisms in the biofilm” value (3% concentration, vs 50 ppm ClO2) worked out at 1200 times.

Consider `CO[C@H]1/C=C/O[C@@]2(C)Oc3c(C)c(O)c4c(O)c(c(/C=N/N5CCN(C)CC5)c(O)c4c3C2=O)NC(=O)/C(C)=C\C=C\[C@H](C)[C@H](O)[C@@H](C)[C@@H](O)[C@@H](C)[C@H](OC(C)=O)[C@@H]1C` [rifampin], for which the “Exposure Time (22° C.) for Film Sterilization” value (100 μg/ml) is 360 min.
